Laboratory results taken from ChEMBL document CHEMBL1201862, “PubChem BioAssay data set” (2004).
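Five concentrations, 48 hours, 96-well plates. Here, GI50 denotes the concentration required for 50% inhibition of growth.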 Activity calls are given as the source filed them. Cut-off read from the data, not from the text of the source: active = GI50 up to about 1.1 µM and inactive = higher.

Columns and labels:
Test in all cases: DTP human tumour cell line panel, 48 h
A498 = system: A498
COLO 205 = system: COLO 205
EKVX = system: EKVX
HCT-15 = system: HCT-15
NCI-H226 = system: NCI-H226
NCI-H23 = system: NCI-H23
NCI-H522 = system: NCI-H522
OVCAR-3 = system: OVCAR-3
SF-268 = system: SF-268
SK-MEL-28 = system: SK-MEL-28
SK-MEL-2 = system: SK-MEL-2
SK-MEL-5 = system: SK-MEL-5
SK-OV-3 = system: SK-OV-3
TK-10 = system: TK-10
U-251 = system: U-251
UO-31 = system: UO-31
CCRF-CEM = system: CCRF-CEM
K562 = system: K562
MOLT-4 = system: MOLT-4
UACC-62 = system: UACC-62

## O=C(/C=C1\Nc2ccc([N+](=O)[O-])cc2N=C1NC12CC3CC(CC(C3)C1)C2)c1ccccc1
A498
  GI50: 3.85 µM (inactive)
COLO 205
  GI50: > 10 µM (inactive)
EKVX
  GI50: > 10 µM (inactive)
HCT-15
  GI50: > 10 µM
NCI-H226
  GI50: 5.5 µM (inactive)
NCI-H23
  GI50: > 10 µM (inactive)
NCI-H522
  GI50: > 10 µM (inactive)
OVCAR-3
  GI50: > 10 µM (inactive)
SF-268
  GI50: > 10 µM (inactive)
SK-MEL-28
  GI50: > 10 µM (inactive)
SK-MEL-2
  GI50: > 10 µM (inactive)
SK-MEL-5
  GI50: > 10 µM (inactive)
SK-OV-3
  GI50: 3.77 µM (inactive)
TK-10
  GI50: 9.91 µM (inactive)
U-251
  GI50: 7.16 µM (inactive)
UO-31
  GI50: > 10 µM (inactive)

## CSc1nc2c(c(=O)[nH]1)N=C(c1ccccc1)CC(c1ccccc1)N2 (configuration not stated)
A498
  GI50: 83.4 µM (inactive)
CCRF-CEM
  GI50: 26.1 µM (inactive)
COLO 205
  GI50: 41.7 µM (inactive)
EKVX
  GI50: 32.1 µM (inactive)
K562
  GI50: 23.4 µM (inactive)
MOLT-4
  GI50: 18.9 µM (inactive)
NCI-H226
  GI50: 39.7 µM (inactive)
NCI-H23
  GI50: 31.3 µM (inactive)
NCI-H522
  GI50: 19.2 µM (inactive)
OVCAR-3
  GI50: 39 µM (inactive)
SK-MEL-28
  GI50: 50.6 µM (inactive)
SK-MEL-2
  GI50: 27.8 µM (inactive)
SK-MEL-5
  GI50: 28.1 µM (inactive)
SK-OV-3
  GI50: 33.6 µM (inactive)
U-251
  GI50: 34 µM (inactive)
UACC-62
  GI50: 23.6 µM (inactive)
UO-31
  GI50: 50.4 µM (inactive)

## COc1cccc2c1-c1c(OC)cccc1SS2
A498
  GI50: 8.75 µM (inactive)
COLO 205
  GI50: 20 µM (inactive)
EKVX
  GI50: 13.1 µM (inactive)
HCT-15
  GI50: 13.4 µM
K562
  GI50: 27.5 µM (inactive)
MOLT-4
  GI50: 13.4 µM (inactive)
NCI-H226
  GI50: 16 µM (inactive)
NCI-H23
  GI50: 18.6 µM (inactive)
NCI-H522
  GI50: 19.7 µM (inactive)
OVCAR-3
  GI50: 16.3 µM (inactive)
SF-268
  GI50: 22.6 µM (inactive)
SK-MEL-28
  GI50: 16.8 µM (inactive)
SK-MEL-2
  GI50: 17.5 µM (inactive)
SK-MEL-5
  GI50: 13.6 µM (inactive)
TK-10
  GI50: 21.9 µM (inactive)
U-251
  GI50: 15.7 µM (inactive)
UACC-62
  GI50: 20.1 µM (inactive)
UO-31
  GI50: 22.8 µM (inactive)

## C=CCOc1ccc(C(=N/NC(=O)c2ccccc2)/N=N/c2ccc(C)cc2)cc1OC
A498
  GI50: 25.6 µM (inactive)
CCRF-CEM
  GI50: 9.14 µM (inactive)
COLO 205
  GI50: 16.5 µM (inactive)
EKVX
  GI50: 30.9 µM (inactive)
HCT-15
  GI50: 35.1 µM
MOLT-4
  GI50: 26.5 µM (inactive)
NCI-H226
  GI50: 20.6 µM (inactive)
NCI-H23
  GI50: 20.2 µM (inactive)
NCI-H522
  GI50: 16.4 µM (inactive)
OVCAR-3
  GI50: 25.9 µM (inactive)
SF-268
  GI50: 52.7 µM (inactive)
SK-MEL-28
  GI50: 20 µM (inactive)
SK-MEL-2
  GI50: 23.2 µM (inactive)
SK-MEL-5
  GI50: 17.9 µM (inactive)
TK-10
  GI50: 30 µM (inactive)
U-251
  GI50: 10.4 µM (inactive)
UACC-62
  GI50: 14.3 µM (inactive)
UO-31
  GI50: 24.8 µM (inactive)

## COc1ccc(S(=O)(=O)NNS(C)(=O)=O)cc1OC
A498
  GI50: > 100 µM (inactive)
CCRF-CEM
  GI50: > 100 µM (inactive)
COLO 205
  GI50: > 100 µM (inactive)
EKVX
  GI50: > 100 µM (inactive)
HCT-15
  GI50: > 100 µM
K562
  GI50: > 100 µM (inactive)
MOLT-4
  GI50: > 100 µM (inactive)
NCI-H226
  GI50: > 100 µM (inactive)
NCI-H23
  GI50: > 100 µM (inactive)
NCI-H522
  GI50: > 100 µM (inactive)
SF-268
  GI50: 79.4 µM (inactive)
SK-MEL-2
  GI50: > 100 µM (inactive)
SK-MEL-5
  GI50: > 100 µM (inactive)
TK-10
  GI50: > 100 µM (inactive)
U-251
  GI50: > 100 µM (inactive)
UACC-62
  GI50: > 100 µM (inactive)
UO-31
  GI50: > 100 µM (inactive)

## O=C(/C=C\c1ccccc1-c1ccccc1)c1ccccc1
A498
  GI50: > 100 µM (inactive)
CCRF-CEM
  GI50: > 100 µM (inactive)
COLO 205
  GI50: > 100 µM (inactive)
EKVX
  GI50: > 100 µM (inactive)
HCT-15
  GI50: > 100 µM
K562
  GI50: > 100 µM (inactive)
MOLT-4
  GI50: 92 µM (inactive)
NCI-H226
  GI50: > 100 µM (inactive)
NCI-H23
  GI50: 33.3 µM (inactive)
NCI-H522
  GI50: 17.9 µM (inactive)
OVCAR-3
  GI50: > 100 µM (inactive)
SF-268
  GI50: > 100 µM (inactive)
SK-MEL-5
  GI50: > 100 µM (inactive)
SK-OV-3
  GI50: > 100 µM (inactive)
TK-10
  GI50: > 100 µM (inactive)
U-251
  GI50: > 100 µM (inactive)
UACC-62
  GI50: > 100 µM (inactive)
UO-31
  GI50: > 100 µM (inactive)

## CC1CC/C(=C\c2ccc(F)cc2)C2=C1C(c1ccc(F)cc1)NC(=S)N2 (configuration not stated)
A498
  GI50: 30.5 µM (inactive)
CCRF-CEM
  GI50: 68.5 µM (inactive)
COLO 205
  GI50: 30.6 µM (inactive)
EKVX
  GI50: 12.9 µM (inactive)
HCT-15
  GI50: 41 µM
K562
  GI50: 35.5 µM (inactive)
MOLT-4
  GI50: 49.2 µM (inactive)
NCI-H226
  GI50: 46.1 µM (inactive)
NCI-H23
  GI50: 30.7 µM (inactive)
OVCAR-3
  GI50: 33.8 µM (inactive)
SF-268
  GI50: 91.4 µM (inactive)
SK-MEL-28
  GI50: 88.3 µM (inactive)
SK-MEL-2
  GI50: 28.2 µM (inactive)
SK-MEL-5
  GI50: 31 µM (inactive)
SK-OV-3
  GI50: > 100 µM (inactive)
TK-10
  GI50: 79.3 µM (inactive)
U-251
  GI50: 61.4 µM (inactive)
UACC-62
  GI50: > 100 µM (inactive)
UO-31
  GI50: 23.2 µM (inactive)

## CCOC(=O)C(=O)Nc1ccccc1C
A498
  GI50: > 100 µM (inactive)
CCRF-CEM
  GI50: > 100 µM (inactive)
COLO 205
  GI50: > 100 µM (inactive)
EKVX
  GI50: > 100 µM (inactive)
HCT-15
  GI50: > 100 µM
K562
  GI50: > 100 µM (inactive)
MOLT-4
  GI50: > 100 µM (inactive)
NCI-H226
  GI50: > 100 µM (inactive)
NCI-H23
  GI50: > 100 µM (inactive)
NCI-H522
  GI50: > 100 µM (inactive)
SF-268
  GI50: > 100 µM (inactive)
SK-MEL-28
  GI50: > 100 µM (inactive)
SK-MEL-2
  GI50: > 100 µM (inactive)
SK-MEL-5
  GI50: > 100 µM (inactive)
SK-OV-3
  GI50: > 100 µM (inactive)
TK-10
  GI50: > 100 µM (inactive)
U-251
  GI50: > 100 µM (inactive)
UACC-62
  GI50: > 100 µM (inactive)
UO-31
  GI50: > 100 µM (inactive)
